Results as given in US6790848B2, “4-piperazinylindole derivatives with 5-HT6 receptor affinity” (Syntex (U.S.A.) LLC, priority 2001, dated 2004).

These molecules were tested against T1, recombinant human 5-HT6 receptor (Homo sapiens, UniProt P50406) (assay: Radioligand binding studies: competition for [3H]LSD binding in membranes of HEK293 cells). Details: [3H]LSD (5 nM), HEK293 cell membranes, 60 min at 37° C., pH 7.4.
T1 construct: expressed in transfected cells; cell membranes used
Method: The pharmacology of the compounds of this invention was determined by art recognized procedures.
The binding activity of compounds of this invention in vitro was determined as follows.
Duplicate determinations of ligand affinity are made by competing for binding of [3H]LSD in cell membranes derived from HEK293 cells stably expressing recombinant human 5-HT6 receptor.
All determinations are made in assay buffer containing 50 mM Tris-HCl, 10 mM MgSO4, 0.5 mM EDTA, 1 mM ascorbic acid, pH 7.4 at 37° C., in a 250 microliter reaction volume. Assay tubes containing [3H] LSD (5 nM), competing ligand, and membrane are incubated in a shaking water bath for 60 min. at 37° C., filtered onto Packard GF-B plates (pre-soaked with 0.3% PEI) using a Packard 96 well cell harvester and washed 3 times in ice cold 50 mM Tris-HCl. Bound [3H] LSD is determined as radioactive counts per minute using Packard TopCount.
Displacement of [3H]LSD from the binding sites was quantified by fitting concentration-binding data to a 4-parameter logistic equation: [formula]
where Hill is the Hill slope, [ligand] is the concentration of competing radioligand and IC50 is the concentration of radioligand producing half-maximal specific binding of radioligand. The specific binding window is the difference between the Bmax and the basal parameters.

T1 sequence (P50406 whole entry): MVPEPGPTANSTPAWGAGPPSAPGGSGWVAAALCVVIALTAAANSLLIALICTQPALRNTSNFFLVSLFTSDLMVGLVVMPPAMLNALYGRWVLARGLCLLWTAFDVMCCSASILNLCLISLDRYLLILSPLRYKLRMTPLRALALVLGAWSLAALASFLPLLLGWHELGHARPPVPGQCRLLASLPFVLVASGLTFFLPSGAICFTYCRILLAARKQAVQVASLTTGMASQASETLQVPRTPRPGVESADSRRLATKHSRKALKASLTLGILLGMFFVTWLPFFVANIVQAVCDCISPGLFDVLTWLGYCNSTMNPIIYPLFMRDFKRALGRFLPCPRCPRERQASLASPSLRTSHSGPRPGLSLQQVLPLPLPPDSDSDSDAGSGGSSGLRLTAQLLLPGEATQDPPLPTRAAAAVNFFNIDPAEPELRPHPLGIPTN

SMILES	Ki	pKi
O=S(=O)(c1ccccc1)n1cc(Br)c2c(N3CCNCC3)cccc21 [1-benzenesulfonyl-3-bromo-4-piperazin-1-yl-1H-indole]	0.123 nM	–
O=S(=O)(c1ccccc1F)n1ccc2c(N3CCNCC3)cccc21 [1-(2-fluoro-benzenesulfonyl)-4-piperazin-1-yl-1H-indole]	0.0525 nM	–
CN1CCN(c2cccc3c2ccn3S(=O)(=O)c2ccc(F)cc2)CC1 [1-(4-fluoro-benzenesulfonyl)-4-(4-methyl-piperazin-1-yl)-1H-indole]	0.832 nM	–
COc1ccc(S(=O)(=O)n2ccc3c(N4CCNCC4)cccc32)cc1 [1-(4-Methoxy-benzenesulfonyl)-4-piperazin-1-yl-1H-indole]	0.447 nM	–
CN(C)S(=O)(=O)c1cccc(S(=O)(=O)n2ccc3c(N4CCNCC4)cccc32)c1 [NN-dimethyl-3-(4-piperazin-1-yl-indole-1-sulfonyl)-benzenesulfonamide]	–	8.69
O=S(=O)(c1cccc(Cl)c1)n1ccc2c(N3CCNCC3)cccc21 [1-(3-chloro-benzenesulfonyl)-4-piperazin-1-yl-1H-indole]	0.11 nM	–
CS(=O)(=O)c1cccc(S(=O)(=O)n2ccc3c(N4CCNCC4)cccc32)c1 [1-(3-methanesulfonyl-benzenesulfonyl)-4-piperazin-1-yl-1Hindole]	2.69 nM	–
COc1cccc(S(=O)(=O)n2ccc3c(N4CCNCC4)cccc32)c1 [1-(3-methoxy-benzenesulfonyl)-4-piperazin-1-yl-1H-indole]	0.372 nM	–
O=S(=O)(c1cccc(C(F)(F)F)c1)n1ccc2c(N3CCNCC3)cccc21 [4-piperazin-1-yl-1-(3-trifluoromethyl-benzenesulfonyl)-1H-indole]	0.2 nM	–
O=S(=O)(c1cc(Cl)ccc1Cl)n1ccc2c(N3CCNCC3)cccc21 [1-(2,5-dichloro-benzenesulfonyl)-4-piperazin-1-yl-1H-indole]	0.151 nM	–
O=S(=O)(c1cccc2ccccc12)n1ccc2c(N3CCNCC3)cccc21 [1-(Naphthalene-1-sulfonyl)-4-piperazin-1-yl-1H-indole]	0.158 nM	–
CC(C)(C)c1ccc(S(=O)(=O)n2ccc3c(N4CCNCC4)cccc32)cc1 [1-(4-ter-butyl-benzenesulfonyl)-4-piperazin-1-yl-1H-indole]	3.55 nM	–
CS(=O)(=O)c1ccc(S(=O)(=O)n2ccc3c(N4CCNCC4)cccc32)cc1 [1-(4-methanesulfonyl-benzenesulfonyl)-4-piperazin-1-yl-1H-indole]	42.7 nM	–
N#Cc1cccc(S(=O)(=O)n2ccc3c(N4CCNCC4)cccc32)c1 [3-(4-piperazin-1-yl-indole-1-sulfonyl)-benzonitrile]	1.12 nM	–
COc1ccc(OC)c(S(=O)(=O)n2ccc3c(N4CCNCC4)cccc32)c1 [1-(2,5-dimethoxy-benzenesulfonyl)-4-piperazin-1-yl-1H-indole]	0.933 nM	–
CCS(=O)(=O)c1cccc(S(=O)(=O)n2ccc3c(N4CCNCC4)cccc32)c1 [1-(3-ethanesulfonyl-benzenesulfonyl)-4-piperazin-1-yl-1H-indole]	1.55 nM	–
O=S(=O)(NC1CC1)c1cccc(S(=O)(=O)n2ccc3c(N4CCNCC4)cccc32)c1 [N-cyclopropyl-3-(4-piperazin-1-yl-indole-1-sulfonyl)-benzenesulfonamide]	1.26 nM	–
O=S(=O)(c1cccc(F)c1)n1ccc2c(N3CCNCC3)cccc21 [1-(3-fluoro-benzenesulfonyl)-4-piperazin-1-yl-1H-indole]	0.155 nM	–
O=S(=O)(c1cccs1)n1ccc2c(N3CCNCC3)cccc21 [4-piperazin-1-yl-1-(thiophene-2-sulfonyl)-1H-indole]	0.447 nM	–
O=S(=O)(c1cnc(Cl)c(Br)c1)n1ccc2c(N3CCNCC3)cccc21 [1-(5-bromo-6-chloro-pyridine-3-sulfonyl)-4-piperazin-1-yl-1H-indole]	5.62 nM	–
CCCS(=O)(=O)c1cccc(S(=O)(=O)n2ccc3c(N4CCNCC4)cccc32)c1 [4-piperazin-1-yl-1-[3-(propane-1-sulfonyl)-benzenesulfonyl]-1H-indole]	1.55 nM	–
